In publication PMC11583123, “Linker Chemistry and Connectivity Fine-Tune the Immune Response and Kinetic Solubility of Conjugated NOD2/TLR7 Agonists” (Bioconjugate Chemistry, 2024):

Assays:
[1] = target: T1, human NOD2 (Homo sapiens, UniProt Q9HC29); assay: HEK-Blue NOD2 NF-κB SEAP reporter assay; assay type: cell-based; conditions: HEK-Blue NOD2 cells
T1 construct: host or cells: HEK-Blue NOD2 (HEK293-derived)
Description: (§1) The building blocks and synthesized conjugates were initially assessed for their receptor-specific activities toward NOD2, TLR7 and TLR8 using the commercially available HEK-Blue NOD2, TLR7 and TLR8 reporter cell lines. These cell lines were derived from HEK293 cells by cotransfection of human NOD2/TLR7/TLR8 and an NF-κB-inducible secreted embryonic alkaline phosphatase (SEAP). Activation of NOD2/TLR7/TLR8, and subsequently of NF-κB, leads to the expression and secretion of SEAP, the levels of which can be quantified colorimetrically. […]
(§2) 3.1. Hek-Blue NOD2, TLR7 and TLR8 cells.
(§3) HEK-Blue NOD2, TLR7, and TLR8 cells (Invivogen, San Diego, CA, USA) were cultured according to the manufacturer instructions in Dulbecco’s modified Eagle’s medium (Sigma-Aldrich, St. Louis, MO, USA) supplemented with 10% heat-inactivated fetal bovine serum (Gibco), 2 mM L-glutamine (Sigma-Aldrich), 100 U/mL penicillin (Sigma-Aldrich), 100 µg/mL streptomycin (Sigma-Aldrich), and 100 µg/mL Normocin (Invivogen) for two passages. All subsequent passages of NOD2 and TLR8 cells were cultured in medium additionally supplemented with 100 µg/mL Zeocin and 30 µg/mL Blasticidin (Invivogen) and of TLR7 cells with 100 µg/mL Zeocin and 10 µg/mL Blasticidin. […]
(§4) The tested compounds were dissolved in DMSO and further diluted in culture medium to the desired final concentrations, such that the final DMSO concentration never exceeded 0.1%. […]
(§5) 3.4 NOD2/TLR7/TLR8 NF-kB reporter assay
(§6) HEK-Blue NOD2 cells (25,000 cells/well), TLR7 and TLR8 cells (40,000 cells/well) were seeded in 96-well plates in 100 µL HEK-Blue detection medium (Invivogen, San Diego, CA, USA) and treated with […]
(§7) corresponding vehicle (0.1% DMSO). After 18 h of incubation (37 °C, 5% CO2), secreted embryonic

[2] = target: T2, human TLR8 (Homo sapiens, UniProt Q9NR97); assay: HEK-Blue TLR8 NF-κB SEAP reporter assay; assay type: cell-based; conditions: HEK-Blue TLR8 cells; for EC50: 18 h, eight concentrations (1 nM to 10 μM), mean ± SEM; for TLR8 agonistic activity (in words): up to 10 μM
T2 construct: host or cells: HEK-Blue TLR8 (HEK293-derived)
T2 sequence (Q9NR97 27-1041): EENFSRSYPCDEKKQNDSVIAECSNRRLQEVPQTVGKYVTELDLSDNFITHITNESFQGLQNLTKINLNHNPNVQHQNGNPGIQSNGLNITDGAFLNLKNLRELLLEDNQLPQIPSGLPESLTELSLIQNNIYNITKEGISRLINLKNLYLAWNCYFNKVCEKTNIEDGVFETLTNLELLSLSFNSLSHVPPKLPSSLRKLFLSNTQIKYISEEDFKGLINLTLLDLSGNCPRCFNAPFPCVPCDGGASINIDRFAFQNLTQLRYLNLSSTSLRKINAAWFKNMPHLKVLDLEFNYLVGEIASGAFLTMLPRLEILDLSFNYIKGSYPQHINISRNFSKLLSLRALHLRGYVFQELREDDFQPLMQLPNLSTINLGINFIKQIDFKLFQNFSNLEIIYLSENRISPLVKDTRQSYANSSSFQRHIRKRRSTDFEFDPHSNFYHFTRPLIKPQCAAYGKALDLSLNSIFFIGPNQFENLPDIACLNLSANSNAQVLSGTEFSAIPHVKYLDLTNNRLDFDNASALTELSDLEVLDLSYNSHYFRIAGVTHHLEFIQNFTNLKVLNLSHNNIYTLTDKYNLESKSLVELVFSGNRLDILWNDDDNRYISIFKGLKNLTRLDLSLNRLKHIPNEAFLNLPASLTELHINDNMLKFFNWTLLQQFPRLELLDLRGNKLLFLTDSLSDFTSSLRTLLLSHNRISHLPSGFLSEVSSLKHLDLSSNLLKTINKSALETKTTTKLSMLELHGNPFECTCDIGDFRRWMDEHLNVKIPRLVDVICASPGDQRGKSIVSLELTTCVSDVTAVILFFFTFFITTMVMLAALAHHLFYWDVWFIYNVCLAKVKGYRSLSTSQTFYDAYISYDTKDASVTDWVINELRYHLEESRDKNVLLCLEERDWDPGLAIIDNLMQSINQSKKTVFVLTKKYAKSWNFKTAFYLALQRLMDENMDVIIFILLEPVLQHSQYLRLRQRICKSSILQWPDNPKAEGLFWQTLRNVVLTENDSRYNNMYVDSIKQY
Description: as §1, §2, §3, §4, §5, §6, §7

[3] = Kinetic solubility in PBS (UHPLC, method of Hoelke et al.); assay type: physicochemical; conditions: PBS, 5% DMSO
Procedure: Second, the kinetic solubility of all individual building blocks (compounds 4-7) and conjugates was determined (results are listed in Table 1) in order to highlight how fine-tuning of linker traits can impact this physicochemical property. Kinetic solubility refers to the maximum solubility of a compound when it precipitates from a supersaturated solution, which is metastable and not in equilibrium; it was measured using the method described by Hoelke et al.[34] The length and composition of the linker as well as linkage site are important for activity and physicochemical characteristics of conjugates, which in turn affect their pharmacokinetic profiles. In general, the benzylic COOH was exploited exclusively as the linker attachment site in TLR7 agonist-featuring conjugates, while two potential linkage sites were considered in the structure of NOD2 agonist. […] In conjugates 22-24 and 29, the moieties were connected via the γ-COOH group of the NOD2 agonist. […] It has to be kept in mind that among the polyalkylethers, the structural requirements for aqueous solubility are poised toward the (−OCH2CH2−)n unit while (−OCH2CH2CH2−)n is not beneficial in this respect.[35] […]
suspension was filtered through a syringe filter (0.45 μm), diluted 2.25-fold with acetonitrile, and analyzed with UHPLC. The solubility was quantified with a five-point calibration curve from 500 to 0.8 μM generated by dilution of the original DMSO solution into a 1:1 mixture of acetonitrile and PBS. The content of DMSO in all solutions was fixed to 5% by adding the respective amounts of DMSO. The column used was Waters Acquity UPLC BEH C18 (1.7 μm, 2.1 × 50 mm). The eluent was a mixture of 0.1% TFA in water (A) and acetonitrile (B), with a gradient of (%B): 0−6 min, 5−95%; 6−8 min, 95%; 8−8.5 min, 95−5%. The column was thermostated at 40 °C.
3.1. Hek-Blue NOD2, TLR7 and TLR8 cells. […]
(BioTek Synergy microplate reader; Winooski, VT, USA). EC50 values were calculated using Prism

[4] = 18 h, eight concentrations (1 nM to 10 μM), mean ± SEM
[5] = aqueous with cosolvent or surfactant or cyclodextrin, kinetic from dmso stock

T1 sequence (Q9HC29 whole entry): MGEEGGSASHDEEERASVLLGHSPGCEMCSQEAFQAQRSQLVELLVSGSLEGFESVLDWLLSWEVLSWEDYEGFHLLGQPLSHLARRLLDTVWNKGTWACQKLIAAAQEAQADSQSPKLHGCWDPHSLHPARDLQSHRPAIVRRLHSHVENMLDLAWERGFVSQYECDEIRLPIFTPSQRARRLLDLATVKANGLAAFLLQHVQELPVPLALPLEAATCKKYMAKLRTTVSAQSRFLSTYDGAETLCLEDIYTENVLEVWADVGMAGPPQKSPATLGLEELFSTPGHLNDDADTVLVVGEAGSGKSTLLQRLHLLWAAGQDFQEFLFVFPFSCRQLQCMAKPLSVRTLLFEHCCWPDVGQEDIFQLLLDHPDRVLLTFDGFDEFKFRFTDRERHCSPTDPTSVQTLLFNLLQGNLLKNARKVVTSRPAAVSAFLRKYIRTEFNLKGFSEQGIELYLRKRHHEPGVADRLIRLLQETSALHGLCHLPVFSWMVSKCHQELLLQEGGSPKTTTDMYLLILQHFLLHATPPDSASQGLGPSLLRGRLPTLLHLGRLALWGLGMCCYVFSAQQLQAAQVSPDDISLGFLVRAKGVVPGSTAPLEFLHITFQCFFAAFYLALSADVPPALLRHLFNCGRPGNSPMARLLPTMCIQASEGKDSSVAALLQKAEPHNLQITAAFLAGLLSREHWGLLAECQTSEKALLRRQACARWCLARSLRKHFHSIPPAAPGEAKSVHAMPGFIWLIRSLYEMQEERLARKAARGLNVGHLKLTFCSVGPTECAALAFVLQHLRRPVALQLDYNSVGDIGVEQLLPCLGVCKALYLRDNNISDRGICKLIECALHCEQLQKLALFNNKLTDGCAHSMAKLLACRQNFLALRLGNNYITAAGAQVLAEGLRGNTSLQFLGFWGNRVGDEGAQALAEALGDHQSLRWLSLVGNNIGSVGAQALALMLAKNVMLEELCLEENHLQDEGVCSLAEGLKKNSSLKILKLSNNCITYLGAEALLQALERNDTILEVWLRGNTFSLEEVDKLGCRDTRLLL

| Compound | EC50 [1] [µM] | EC50 [1, 4] [µM] | EC50 [2] [µM] | TLR8 agonistic activity (in words) [2] | solubility kinetic [3] [µM] | solubility kinetic [3, 5] [µM] |
| --- | --- | --- | --- | --- | --- | --- |
| CCOCc1nc2c(NC(=O)CCCCCNC(=O)CC[C@@H](NC(=O)[C@@H](NC(=O)CNC(=O)/C=C/c3ccc(O)c(OC)c3)C(C)C)C(=O)OCC)nc3ccccc3c2n1CC(C)(C)O [compound 32] | 7.2 | 7.23 ± 0.499 | > 10 | neither 32 nor 33 were able to induce any TLR8 agonistic activity | 437.3 | 437 |
| CCOCc1nc2c(N)nc3ccccc3c2n1CC(C)(C)NC(=O)CCCCCNC(=O)CC[C@@H](NC(=O)[C@@H](NC(=O)CNC(=O)/C=C/c1ccc(O)c(OC)c1)C(C)C)C(=O)OCC [compound 33] | – | > 10 | > 10 | neither 32 nor 33 were able to induce any TLR8 agonistic activity | 404.1 | 404 |
